Measured values published in patent US12233053B2, “Adenosine A3 receptor antagonists for treating aging skin and wounds” (ORADIN PHARMACEUTICAL LTD., priority 2021, dated 2025).

Legend:
[1] = tested on: HaCaT keratinocyte cells; experiment: Scratch assay (gap size, cell migration), keratinocytes; format: cell-based, human; conditions: 24 hours
Protocol: (§1) Keratinocyte HaCaT cells or 3T3 fibroblast cells (10^6 cells) were grown in 35 mm petri dishes in DMEM containing 10% FCS overnight. Thereafter, the cell cultures were scratched using 20 μl pipet tip in the middle of the culture plate, the cells were washed three times, and then MRS-1523 (at concentrations of 10 nM to 10 μM in DMEM containing 10% FCS) was added to each scratched plate and incubated with the cells for 24 hours. The gap size in plates of MRS-1523 treated cells was compared to the gap size in plates of control cells which were scratched and incubated for 24 hours in DMEM containing 10% FCS in the absence of MRS-1523. The results are presented as mean±SD. Statistical significance was determined by Student T-test.

[2] = tested on: 3T3 fibroblast cells; experiment: Scratch assay (gap size, cell migration), fibroblasts; format: cell-based; conditions: 24 hours
Protocol: as §1

[3] = tested on: B16-F1 melanocytes; experiment: Scratch assay (gap size, cell migration), melanocytes; format: cell-based; conditions: 10 μM, 24 hours, B16-F1, FIG. 4E
Protocol: FIGS. 4A-E show bar graphs of the gap size in a scratch assay of different cell types in culture. FIGS. 4A-B show bar graphs of the gap size of HaCaT keratinocyte cells (A) and 3T3 fibroblast cells (B) 24 hours after treatment with increasing concentrations of MRS-1523 in the scratch assay. FIGS. 4C-E show bar graphs of the gap size of HaCAT cells (FIG. 4C), 3T3 fibroblasts (FIG. 4D), and B16-F1 melanocytes (FIG. 4E) after 24-hour treatment with 10 μM MRS-1523 in the scratch assay. *p<0.05, **p<0.01 by Student T-test.
as §1

[4] = tested on: skin explants; experiment: Fibroblast and collagen staining of skin explants (H&E, Fontana-Masson); parameters: species or system human; conditions: 10 μM, 12 days
Protocol: Skin explants were treated with MRS-1523 (10 μM) for 12 days. Thereafter, the skin explants were stained with hematoxylin and eosin (H&E; FIGS. 5A and 5C) or with Fontana-Masson (FIGS. 5B and 5D).

[5] = tested on: 3T3 fibroblast cells; experiment: Collagen-1 and F-actin expression in fibroblasts (confocal fluorescence); format: cell-based; conditions: 10 μM, 24 hours
Protocol: The effect of MRS-1523 on collagen level in fibroblasts in culture was next examined. 3T3-fibroblast cells were grown in DMEM containing 10% FCS for 24 hours, and then were treated with 10 μM MRS-1523 for additional 24 hours. Thereafter, the presence of collagen or F-actin was evaluated as follows: the cells were incubated with rabbit anti-collagen-1 antibodies, and then with Alexa Fluor® 488-conjugated goat anti-rabbit antibodies to detect collagen-1 (green staining). Detection of F-actin was performed by F-actin-Phalloidin-staining (red staining). Cell nuclei were stained with 4′,6-diamidino-2-phenylindole (DAPI; blue staining).

[6] = tested on: HaCaT cells; experiment: Differentiation markers PAR-2 and Filaggrin in keratinocytes (immunostaining); format: cell-based, human; conditions: 10 μM, 24 hours
Protocol: HaCaT cells were grown in DMEM containing 10% FCS for 24 hours. The cells were then treated with 10 μM MRS-1523 for 24 hours, washed with PBS, and fixed with 4% paraformaldehyde for 1 hour. Fixed cells were washed and incubated with the following primary antibodies (Sigma): anti-PAR-2 (Clone SAM11 produced in mouse, reactive to mouse and human) followed by secondary antibodies, anti-mouse antibodies conjugated to FITC, or anti-Filaggrin (FLG; produced in rabbit) followed by secondary antibodies, anti-rabbit antibodies conjugated to Alexa Fluor® 488.

[7] = tested on: HaCaT keratinocyte cells; conditions: 10 μM or lower concentrations, 24 hours
Protocol: (§2) Cell viability was then measured using Alamar blue (AB) assay according to the manufacturer's instructions. Briefly, the cells were rinsed with PBS, and 0.2 ml of an AB solution (10% (v/v) of AB dye in DMEM) were added to each well. After incubation of 3 hours, AB fluorescence was quantified at the excitation and emission wavelengths of 540 and 595 nm, respectively, using a Tecan Genios microplate reader. The results are given as mean±SD. Statistical significance was determined by Student T-Test.

[8] = tested on: 3T3 fibroblast cells
Protocol: as §2

[9] = tested on: B16-F1 melanocytes
Protocol: HaCaT cells or 3T3 cells (2×10^4) were incubated in 96-well Elisa plates in DMEM containing 10% fetal calf serum (FCS) in the presence of increasing concentrations of MRS-1523 for 24 hours. Cell viability was then measured using Alamar blue (AB) assay according to the manufacturer's instructions. Briefly, the cells were rinsed with PBS, and 0.2 ml of an AB solution (10% (v/v) of AB dye in DMEM) were added to each well. After incubation of 3 hours, AB fluorescence was quantified at the excitation and emission wavelengths of 540 and 595 nm, respectively, using a Tecan Genios microplate reader. The results are given as mean±SD. Statistical significance was determined by Student T-Test.

SMILES: CCCOC(=O)c1c(-c2ccccc2)nc(CC)c(C(=O)SCC)c1CCC [MRS-1523, 3-propyl-6-ethyl-5[(ethylthio)carbonyl]-2-phenyl-4-propyl-3-pyridine carboxylate]
- gap size vs control cells (cell migration) ([1]; 0.01 μM-10 μM, FIG. 4A): significant reduction in the gap size
- cell migration ([1]; 10 μM, FIG. 4C): significantly stimulated
- gap size vs control cells (cell migration) ([2]; 0.01 μM-10 μM, 3T3, FIG. 4B): significant reduction in the gap size
- cell migration ([2]; 10 μM, 3T3, FIG. 4D): significantly stimulated
- melanocytes migration [3]: attenuated
- collagen levels in the dermis vs untreated skin explants [4]: increase
- fibroblast levels in the dermis vs untreated skin explants [4]: increase
- expression of F-actin vs control cells [5]: not increased
- expression of collagen-1 vs control untreated fibroblasts [5]: increased expression
- expression of Filaggrin (FLG) vs control untreated cells [6]: decrease
- expression of PAR-2 vs control untreated cells [6]: decrease
- stimulation of keratinocyte proliferation [7]: 8-16%
- toxic effect on fibroblasts [8]: did not induce any toxic effect
- fibroblast proliferation ([8]; 10 μM, 24 hours, 3T3): slight but significant increase
- toxic effect on melanocyte cells [9]: did not induce any toxic effect
- melanocyte proliferation ([9]; 24 hours, B16-F1): promoted their proliferation
